# Source: BindingDB's records for doi:10.1016/0024-3205(94)00413-m (Sanofi Recherche, 1995)
# Values joined by “and” are separate entries in the source; they are usually repeats but may differ in a detail not shown here. Identical values can stand only once.
# How the values were obtained:
# Substance-P receptor = Substance-P receptor (Rattus norvegicus, UniProt P14600)
# Substance-K receptor [1] = biological target: T1, Substance-K receptor (Rattus norvegicus, UniProt P16610)
# T1 sequence (P16610 whole entry): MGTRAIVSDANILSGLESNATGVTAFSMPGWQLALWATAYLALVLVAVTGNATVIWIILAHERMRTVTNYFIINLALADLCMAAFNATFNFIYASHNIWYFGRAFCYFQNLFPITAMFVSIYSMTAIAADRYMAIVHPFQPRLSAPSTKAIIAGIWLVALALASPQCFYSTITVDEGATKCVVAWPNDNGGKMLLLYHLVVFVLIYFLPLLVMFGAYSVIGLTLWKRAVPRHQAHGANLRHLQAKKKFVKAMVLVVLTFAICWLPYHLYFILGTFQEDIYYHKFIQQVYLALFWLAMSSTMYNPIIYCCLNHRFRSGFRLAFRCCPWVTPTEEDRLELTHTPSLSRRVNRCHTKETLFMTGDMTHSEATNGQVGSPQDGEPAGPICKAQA
# Substance-K receptor [2] = biological target: T2, Substance-K receptor (Cavia porcellus, UniProt Q64077)
# T2 sequence (Q64077 whole entry): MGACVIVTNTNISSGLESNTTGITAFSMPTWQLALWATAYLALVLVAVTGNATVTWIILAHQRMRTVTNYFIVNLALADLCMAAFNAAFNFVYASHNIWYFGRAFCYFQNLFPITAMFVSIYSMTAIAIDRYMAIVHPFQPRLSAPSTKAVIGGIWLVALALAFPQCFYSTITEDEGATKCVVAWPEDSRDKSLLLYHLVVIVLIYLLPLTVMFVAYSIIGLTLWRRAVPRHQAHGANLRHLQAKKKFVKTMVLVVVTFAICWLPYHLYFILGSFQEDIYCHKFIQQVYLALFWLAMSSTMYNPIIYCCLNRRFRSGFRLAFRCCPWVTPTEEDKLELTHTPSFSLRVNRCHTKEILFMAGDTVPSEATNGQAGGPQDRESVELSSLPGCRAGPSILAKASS
# Substance-K receptor [3] = biological target: T3, Substance-K receptor (Mesocricetus auratus, UniProt P51144)
# T3 sequence (P51144 whole entry): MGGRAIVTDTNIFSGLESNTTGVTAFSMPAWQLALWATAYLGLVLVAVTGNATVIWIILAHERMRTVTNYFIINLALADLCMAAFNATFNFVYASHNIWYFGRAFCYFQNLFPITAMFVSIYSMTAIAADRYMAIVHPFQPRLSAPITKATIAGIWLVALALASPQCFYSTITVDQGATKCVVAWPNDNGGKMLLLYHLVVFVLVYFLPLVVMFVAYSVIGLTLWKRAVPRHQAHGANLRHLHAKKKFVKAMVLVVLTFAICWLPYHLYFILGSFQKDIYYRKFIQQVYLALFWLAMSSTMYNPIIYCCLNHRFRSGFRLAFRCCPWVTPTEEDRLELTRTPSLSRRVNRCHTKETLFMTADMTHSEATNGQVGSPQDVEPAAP
# Sequence of Substance-P receptor (P14600 whole entry): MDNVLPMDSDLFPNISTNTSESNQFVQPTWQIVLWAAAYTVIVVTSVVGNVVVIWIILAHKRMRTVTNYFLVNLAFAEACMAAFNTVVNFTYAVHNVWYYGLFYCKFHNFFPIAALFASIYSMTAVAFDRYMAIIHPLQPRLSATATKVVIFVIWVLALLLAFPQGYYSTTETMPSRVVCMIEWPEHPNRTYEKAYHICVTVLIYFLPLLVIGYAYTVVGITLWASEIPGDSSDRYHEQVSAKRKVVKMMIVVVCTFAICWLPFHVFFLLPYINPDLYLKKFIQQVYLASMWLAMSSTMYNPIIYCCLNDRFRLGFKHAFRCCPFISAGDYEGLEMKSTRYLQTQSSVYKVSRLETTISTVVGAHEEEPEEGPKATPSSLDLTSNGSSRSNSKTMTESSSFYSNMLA
compound,measurement,setting,value
CC(=O)N(C)C1(c2ccccc2)CCN(CCCC2(c3ccc(Cl)c(Cl)c3)CCCN(C(=O)c3ccccc3)C2)CC1 (centres undefined) [SR 142806],Ki,Substance-P receptor,2000 nM
same,Ki,Substance-K receptor [1],100 nM and 248 nM
same,Ki,Substance-K receptor [2],73 nM and 350 nM
same,Ki,Substance-K receptor [3],2000 nM
